Laboratory results reported in PMC4920643 (Neuropharmacology, 2016).

How the values were obtained:
5-HT3A receptors = molecular target: T1, 5-HT3A receptors (Homo sapiens, UniProt P46098); assay type: cell-based
T1 construct: expressed in transfected cells; host or cells: Xenopus oocytes injected with cRNA (pGEMHE)
T1 sequence (P46098 24-478): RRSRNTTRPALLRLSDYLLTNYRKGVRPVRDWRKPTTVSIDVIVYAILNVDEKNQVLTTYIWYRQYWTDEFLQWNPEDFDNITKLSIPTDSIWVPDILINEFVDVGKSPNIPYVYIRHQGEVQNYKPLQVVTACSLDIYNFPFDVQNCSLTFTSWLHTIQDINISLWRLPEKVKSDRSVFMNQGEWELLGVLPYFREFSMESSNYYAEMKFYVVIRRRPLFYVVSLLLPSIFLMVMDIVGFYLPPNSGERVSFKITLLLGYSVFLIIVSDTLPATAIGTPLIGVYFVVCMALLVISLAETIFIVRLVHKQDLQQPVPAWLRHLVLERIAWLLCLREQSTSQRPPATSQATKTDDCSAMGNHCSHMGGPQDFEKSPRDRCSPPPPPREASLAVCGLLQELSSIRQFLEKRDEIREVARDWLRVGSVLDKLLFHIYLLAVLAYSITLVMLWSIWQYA

5-HT3 receptor [1] = conditions: cited from earlier work
5-HT3 receptor [2] = conditions: cited from earlier work; remark: listed apart in the source
α7 nACh receptors = conditions: cited from earlier work
[3] = molecular target: nicotinic acetylcholine receptors; conditions: read-out: IC50, block of nicotinic acetylcholine receptors; cited from earlier work
5-HT3 receptors = conditions: cited from earlier work

Which results are given for `NCCc1c[nH]c2ccc(O)cc12` [5-HT]?
Hill slope of agonist concentration-response curve (5-HT3A receptors): 2.06 ± 0.14; desensitisation time constant τ of inward current (5-HT3A receptors): 42 ± 5 s

With `CN1[C@@H]2C[C@@H](OC(=O)c3c[nH]c4ccccc34)C[C@H]1[C@@H]1O[C@@H]12` [SDZ-ICT 322] as the compound, how does the pKd (5-HT3 receptor [1]) read?
The pKd was 9.2.

And the pA2 (5-HT3 receptor [2])?
The pA2 was 10.6.

For `CN1[C@@H]2C[C@@H](OC(=O)[C@H](CO)c3ccccc3)C[C@H]1[C@@H]1O[C@@H]12` [scopolamine], which “expression of α7 nACh receptors” value (α7 nACh receptors) is on record?
Its value is “increases the expression”.

And the IC50 [3]?
The IC50 was 928 µM.

With `CN1C2CCC1CC(OC(=O)c1ccccc1)C2` (stereo not shown) [tropane benzoate] as the compound, how does the “affinity at 5-HT3 receptors” value (5-HT3 receptors) read?
Its value is 63 nM.
